Data on 7 molecules can be found in PubChem BioAssay (NCI).

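Exposure lasted 48 hours, with cells grown in 96-well plates and compounds tested at five concentrations. GI50 = concentration required for 50% inhibition of growth. At the TGI there is no net growth.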

Holding throughout (assay): growth of human tumour cells (NCI), 48 h
For assay [1], the system named is IGROV1 ovarian.
Assay [2] concerns BT-549 breast.
Assay [3] relates to PC-3 prostate.
Assay [4] has as its system MCF7 breast.
Assay [5] deals with NCI-H226 lung.
Assay [6] concerns SN12C renal.
In assay [7] the test system is MOLT-4 leukemia.
In assay [8] the test system is RXF 393 renal.
The test system of assay [9] is HOP-92 NSCLC.
In assay [10] the test system is SNB-19 CNS.

Consider `COc1ccc(N(C)c2nc(Cl)nc3ccn(C)c23)cc1`, for which the GI50 in assay [1] was less than 0.01 µM; in assay [2], less than 0.01 µM; in assay [3] it was less than 0.01 µM; in [4], less than 0.01 µM; in [5], greater than 100 µM; in assay [6], less than 0.01 µM. For the same molecule, the GI50 was less than 0.01 µM in assay [7], less than 0.01 µM in assay [8], 1.79 µM in assay [9] and less than 0.01 µM in assay [10]. The TGI in [1], in assay [2], in assay [3], in assay [4], in assay [5] and in [6] was greater than 100 µM in each case. The TGI in assay [7] is greater than 100 µM; in assay [8] it was greater than 100 µM; in [9] it was 67.5 µM; in [10], greater than 100 µM.
As to `COc1cc(C(=O)N2CCN(c3ccccc3OC)CC2)c(N)cc1OCc1ccccc1`, the GI50 in [1] is 28.5 µM; in assay [2], 27.6 µM; in assay [3], 23.8 µM; in assay [4], 29.3 µM; in assay [5], 38.3 µM; in assay [6], 30.5 µM. Further, the GI50 is 21.5 µM in assay [7], 25.3 µM in assay [8], 14.8 µM in [9] and 25.7 µM in assay [10]. The TGI was greater than 100 µM in assay [1]; 66.8 µM in assay [2]; greater than 100 µM in assay [3]; greater than 100 µM in [4]; greater than 100 µM in assay [5]; greater than 100 µM in assay [6]. Moreover, the TGI in assay [7] is 53.6 µM; in assay [8], 85.9 µM; in assay [9], 43.4 µM; in assay [10], greater than 100 µM.
Regarding `CC1(C)N=C(N)N=C(N)N1c1ccc(OCC(=O)N2CCOCC2)c(Cl)c1`, the GI50 in assay [1] is 0.379 µM; in assay [2], 14.8 µM; in assay [3], 0.531 µM; in assay [4], 1.36 µM; in assay [5] it was 33.5 µM; in assay [6], 6.9 µM. The GI50 is 6.31 µM in assay [7], 52.8 µM in assay [8], greater than 100 µM in [9] and 19.1 µM in assay [10]. The TGI in assay [1] is 12.9 µM; in [2] it was greater than 100 µM; in assay [3] it was greater than 100 µM; in [4], greater than 100 µM; in assay [5], greater than 100 µM; in assay [6] it was greater than 100 µM. For the same molecule, the TGI in assay [7], in [8], in [9] and in assay [10] was greater than 100 µM throughout.
Regarding `CS(=O)(=O)Nc1cccc(-c2ccc3c(NC(=O)C4CC4)n[nH]c3c2)c1`, the GI50 in assay [1] was 16.3 µM; in assay [2], 5.86 µM; in [3], 3.24 µM; in assay [4] it was 0.794 µM; in [5] it was 2.59 µM; in [6], 5.25 µM. The GI50 was 6.27 µM in [7], 1.28 µM in [8] and 3.64 µM in assay [10]. Moreover, the TGI in [1] is greater than 25 µM; in assay [2], greater than 25 µM; in assay [3] it was greater than 25 µM; in [4], greater than 9.93 µM; in assay [5] it was greater than 25 µM; in assay [6], greater than 25 µM. The TGI in assay [7], in [8], in [9] and in assay [10] was greater than 25 µM throughout.
`COc1cc(C2CC(c3ccc(Nc4ccnc5cc(Cl)ccc45)cc3)=NN2C=O)cc(OC)c1OC` (centres undefined): the GI50 in assay [1] was 22.3 µM; in [2], 1.92 µM; in assay [3], 11.7 µM; in [4], 3.23 µM; in assay [5] it was 34.5 µM; in [6] it was 4.37 µM. Moreover, the GI50 was 3.36 µM in assay [7], 2.22 µM in assay [8], 1.83 µM in assay [9] and 18.2 µM in [10]. The TGI was greater than 100 µM in [1]; 3.97 µM in assay [2]; greater than 100 µM in assay [3]; greater than 100 µM in [4]; greater than 100 µM in assay [5]; 42.4 µM in [6]. Moreover, the TGI in assay [7] is 9.21 µM; in assay [8], 8.01 µM; in assay [9], 5.59 µM; in assay [10] it was greater than 100 µM.
For `CCN(CC)CCCNc1nc2ccccc2c2c(=O)c3cc(Cl)ccc3sc12`, the GI50 is 1.36 µM in assay [1]; 15.8 µM in [2]; 3.41 µM in assay [3]; 1.32 µM in [4]; 10.7 µM in assay [5]; 3.68 µM in assay [6]. Moreover, the GI50 in [7] is 2.22 µM; in assay [8], 2.68 µM; in [9] it was 1.57 µM; in assay [10], 6.81 µM. For the same molecule, the TGI stood at 3.1 µM in [1]; 30.4 µM in [2]; 16.7 µM in [3]; 2.91 µM in [4]; 25.1 µM in assay [5]; 15.4 µM in [6]. The TGI in [7] came to 4.92 µM; in assay [8] it was 10.8 µM; in assay [9], 6.58 µM; in assay [10], 20.4 µM.
Consider `Cc1cc(NCCCCNc2ccnc3cc(Cl)ccc23)nc(Nc2ccc(C(=O)N3CCCC3)cc2)n1`, for which the GI50 in assay [1] is 3.58 µM; in assay [2], 1.83 µM; in [3], 3.79 µM; in assay [4], 1.72 µM; in assay [5], 5.13 µM; in assay [6], 2.85 µM. Moreover, the GI50 in assay [7] is 2.81 µM; in assay [8], 1.47 µM; in assay [9], 1.58 µM; in [10], 4.5 µM. In addition, the TGI worked out at 13.4 µM in [1]; 4.38 µM in [2]; 10.9 µM in assay [3]; 5.02 µM in assay [4]; 18.2 µM in assay [5]; 11.4 µM in assay [6]. For the same molecule, the TGI in [7] amounted to 11.6 µM; in [8], 3.08 µM; in [9], 3.7 µM; in assay [10], 18.1 µM.
